Source: US11077136B2, “Compositions for the skin” (BIOIBERICA, S.A.U., priority 2016, dated 2021)

System: Human dermal fibroblasts (HDF)
Experiment: In vitro wound closure (healing activity) test, area covered with cells
Type: cell-based
Conditions: 48 hours; O-3 0.156 mg/mL, HA 0.0017 mg/mL, DS 0.0004 mg/mL, N 0.0818 mg/mL, ZnO 0.0027 mg/mL; FIG. 4 and 5; p<0.05 where significant
Description: Human dermal fibroblasts (HDF) were used, which were cultivated in dishes with 24 wells with a surface area of 1.99 cm^2, with a density of 7×10^4 cells/well. A mark was made in a straight line approximately 2 mm wide on the surface of the single layer of cells using a sterile plastic tip, creating an area free of cells. […]
The cells were then allowed to migrate to the center of the dish, to cover the area free of cells, in the presence of the compounds being studied, and the area covered with cells was quantified after 48 hours using the TIRF Automated Inverted Microscope—ScanR Olympus […] and a 4× objective lens (total amplification 40×). […]
To determine the healing activity of each treatment, the area covered by cells was quantified, in μm^2, before (T0 h) and after (48 h) the treatment, using image analysis using the software Image J. The results were compared with those obtained for the negative and positive controls.

[O]=[Zn] [ZnO, Zinc oxide]
increase in healing (area covered with cells) versus negative control: did not cause a significant increase in healing
